Measurements: PMC5085761 (International Journal of Molecular Sciences, 2016)

Assays:
OATP1B1 = target: T1, OATP1B1 (Homo sapiens, UniProt Q9Y6L6); assay: Inhibition of tracer uptake in OATP1B1-expressing cells; format: in vitro ADME; settings: OATP1B1, tracer [3H]E2G 0.1 µM
T1 construct: host or cells: HEK293
T1 sequence (Q9Y6L6 1-691): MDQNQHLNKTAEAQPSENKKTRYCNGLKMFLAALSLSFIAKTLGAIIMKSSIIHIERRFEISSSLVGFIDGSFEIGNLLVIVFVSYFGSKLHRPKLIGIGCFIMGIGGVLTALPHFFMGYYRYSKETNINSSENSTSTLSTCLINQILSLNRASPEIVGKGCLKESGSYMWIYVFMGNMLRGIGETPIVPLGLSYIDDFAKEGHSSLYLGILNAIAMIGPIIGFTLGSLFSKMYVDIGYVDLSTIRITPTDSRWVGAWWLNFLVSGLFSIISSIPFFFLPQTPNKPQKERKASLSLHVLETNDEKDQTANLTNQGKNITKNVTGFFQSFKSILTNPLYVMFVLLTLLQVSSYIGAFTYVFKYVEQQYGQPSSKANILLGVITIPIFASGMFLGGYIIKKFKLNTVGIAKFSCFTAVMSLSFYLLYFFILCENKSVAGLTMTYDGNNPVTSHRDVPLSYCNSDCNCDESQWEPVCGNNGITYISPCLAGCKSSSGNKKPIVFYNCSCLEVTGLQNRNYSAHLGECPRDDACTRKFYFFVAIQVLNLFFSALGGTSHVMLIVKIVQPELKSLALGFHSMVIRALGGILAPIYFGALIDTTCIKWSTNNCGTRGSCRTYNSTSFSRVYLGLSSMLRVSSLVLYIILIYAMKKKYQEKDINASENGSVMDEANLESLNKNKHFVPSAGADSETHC
Method: For the SLC transporter experiments, Mock Flp-in-293 cells (Flp/mock), OAT1-expressing Flp-in-293 cells (Flp/OAT1), mock HEK293 cells (HEK/mock), and OATP1B3-expressing HEK293 cells (HEK/OATP1B3) were obtained from Kanazawa University (Ishikawa, Japan). Briefly, Flp-in-293 and HEK293 cells were transfected with the appropriate plasmid DNA and selected using antibiotics (hygromycin or G-418). All cell lines were cultured in DMEM (Life Technologies Japan) supplemented with 10% (v/v) fetal bovine serum (American Type Culture Collection) and antibiotics (100 U/mL penicillin and 100 μg/mL streptomycin (Life Technologies Japan) for mock cells, 0.2 mg/mL hygromycin for Flp/OAT1 cells, and 1.2 mg/mL G-418 (Roche Diagnostics K.K., Tokyo, Japan) for HEK/OATP1B3 cells) at 37 °C under an atmosphere containing 5% CO2. […]
The experiments were performed as described previously, with minor modifications. […] The cells were lysed in 0.3 mL of 0.1N NaOH at room temperature, after which the radioactivity of each aliquot was measured as described above. The protein concentration of the cell lysate was determined with a VersaMax microplate reader (Molecular Devices Japan K.K., Osaka, Japan) or SpectraMax i3x (Molecular Devices Japan K.K.; only for OATP1B1) using a BCA Protein Assay Kit (Thermo Fisher Scientific, Kanagawa, Japan). Tracer uptake was expressed as pmol/mg protein. […]

LLC-PK1 monolayer model = assay: Inhibition study of [14C]fluciclovine apical-to-basal transport, LLC-PK1 monolayer model
Text: Natural and synthetic amino acids were used as inhibitors: MeAIB (2-(methylamino)-isobutyric acid, for system A in the presence of Na^+); Thr (L-threonine, for system ASC in the presence of Na^+); and BCH (2-aminobicyclo[2,2,1]heptane-2-carboxylic acid, for system L in the absence of Na^+).

| IC50 (OATP1B1) [mM] | SMILES | apical-to-basal transport rate, % of the control in Na+ buffer (LLC-PK1 monolayer model; Na+-free buffer, 10 µM, 120 min) [%] | contribution of Na+-dependent transport to the total penetration amount (LLC-PK1 monolayer model; control in Na+-free buffer subtracted from control in Na+ buffer) [%] |
| --- | --- | --- | --- |
| 5.41 ± 2.49 | N[C@]1(C(=O)O)C[C@@H](F)C1 [fluciclovine] | – | – |
| – | N[14C]1(C(=O)O)CC(F)C1 (stereo not drawn) [[^14C]fluciclovine, trans-1-amino-3-fluoro[1-^14C]cyclobutanecarboxylic acid] | 58.8 | 41.2 |
